Measurements: patent publication US20120316199A1, “COMPOSITIONS AND METHODS FOR TREATING, CONTROLLING, REDUCING, OR AMELIORATING INFLAMMATORY PAIN” (priority 2011, published 2012)
“And” between values parts separate entries of the source, which are not always exact repeats. Identical values can stand only once.

Columns and labels:
Assay type in all cases: in vivo, Rabbit (New Zealand)
[1] = system: protein concentration in the aqueous humor; experiment: Protein measurement in aqueous humor, rabbit paracentesis model; conditions: for Protein level in aqueous humor, Mean: group mean
Method: (§1) Each rabbit was placed in a restraint device and tagged with the alphanumeric code. The formulations were instilled (50 μl) into the conjunctival sac of both eyes 180, 120, 90 and 30 min before the first paracentesis; then 15, 30, 90 min after the first paracentesis. To perform the first paracentesis the animals were anaesthetized by intravenous injection of 5 mg/kg Zoletil® (Virbac; 2.5 mg/kg tiletamine HCl and 2.5 mg/kg zolazepam HCl) and one drop of local anesthetic (Novesina®, Novartis) was administered to the eye. Anterior chamber paracentesis was performed with a 26 G needle attached to a tuberculin syringe; the needle was introduced into the anterior chamber through the cornea, taking care not to damage the tissues. Two hours after the first paracentesis, the animals were sacrificed with 0.4 ml Tanax® (Intervet International B.V.) and the second paracentesis was performed. About 100 μl of aqueous humor were removed at the second paracentesis. Aqueous humor was immediately split in four aliquots and stored at −80° C. until analysis. Then both eyes were enucleated and the iris-ciliary body was carefully excised, placed in polypropylene tubes, and stored at −80° C. until analysis.
For protein concentration determination in the aqueous humor we used the Protein Quantification Kit (Fluka; Cat. No. 77371; Lot. No. 1303129). Five microliters of aqueous humor were diluted to 100 μl with water. Twenty microliters of samples and of standards were load into a 96-well plate and recorded in a plate layout. Samples were treated following the assay procedure described in the kit. A microplate reader (GDV, Italy; model DV 990 B/V6) set at 670 nm was used for making the calibration and analyzing the samples.
(§2) Pupillary diameter, PGE2, protein, PMN, and MPO were expressed as mean±SEM. Statistical analysis was performed using one way ANOVA followed by a Newman-Keuls post hoc test. Clinical score was expressed as % of eyes and the statistical analysis was performed using Kruskal-Wallis followed by a Dunn post hoc test. P<0.05 was considered statistically significant in both cases. Prism 4 software (GraphPad Software, Inc.) was used for the analysis and graphs.

[2] = system: PGE2 in the aqueous humor; experiment: Prostaglandin E2 (PGE2) measurement in aqueous humor, rabbit paracentesis model; conditions: for PGE2 in aqueous humor, statistical significance versus CTR: p<0.05; for PGE2 level in aqueous humor, Mean: second paracentesis, group mean
Method: as §1
For the quantitative determination of PGE2 in the aqueous humor we used the PGE2 Immunoassay kit (R&D Systems; Cat. No. KGE004; Lot. No. 240010). Eleven microliters or 16 μl of aqueous humor were diluted to 110 μl or 160 μl with the calibrator diluent solution provided with the kit. One hundred microliters of samples and of standards were load into a 96-well plate and recorded in a plate layout. Samples were treated following the assay procedure described in the kit. A microplate reader (GDV, Italy; model DV 990 B/V6) set at 450 nm (wavelength correction at 540 nm) was used for making the calibration and analyzing the samples.
as §2

[3] = system: iris and conjunctival vessels, anterior chamber; experiment: Clinical evaluation by slit lamp (clinical score), rabbit paracentesis model; set-up: key to Clinical Score −180 min / Clinical Score −5 min / Clinical Score +115 min: 0=normal; 1=discrete dilatation of iris and conjunctival vessels; 2=moderate dilatation of iris and conjunctival vessels; 3=intense iridal hyperemia with flare in the anterior chamber; 4=intense iridal hyperemia with flare in the anterior chamber and presence of fibrinous exudates; conditions: for Clinical Score −5 min: 5 min before the first paracentesis; for Clinical Score −5 min / Clinical Score +115 min / Clinical Score −180 min: raw data per eye; for Clinical Score +115 min: 5 min before the second paracentesis; for Clinical Score −180 min: basal
pupillary diameter = experiment: Pupillary diameter measurement, rabbit paracentesis model; conditions: for Pupillary diameter T2: −5 min: 5 min before the first paracentesis; for Pupillary diameter T2: −5 min / Pupillary diameter T3: +115 min / Pupillary diameter T1: −180 min: raw data per eye, listed as BOL; for Pupillary diameter T3: +115 min: 5 min before the second paracentesis; for Pupillary diameter T1: −180 min: basal; for Mean (mm) Δ(T3 − T1) of pupillary diameter: group mean, n=8 eyes
[4] = 0.1% formulation, +115 min, N=8 eyes
[5] = 0.5% formulation, +115 min, N=8 eyes

Cc1ccc2c(NC[C@](O)(CC(C)(C)c3cc(F)cc4c3OCC4)C(F)(F)F)cccc2n1 [BOL-303242-X, mapracorat]
Protein level in aqueous humor, Mean ([1]; 0.1% formulation, second paracentesis): 33.667 mg/mL
Protein in aqueous humor, statistical significance vs CTR ([1]; 0.5% formulation, p<0.05): statistical significance
Protein level in aqueous humor, Mean ([1]; 0.5% formulation, second paracentesis): 28.844 mg/mL
Protein level in aqueous humor, raw data ([1]; 0.5% formulation, second paracentesis, per eye, listed as BOL): 33.98 mg/mL and 33.65 mg/mL and 19.99 mg/mL and 27.11 mg/mL and 19.72 mg/mL and 36.35 mg/mL and 27.71 mg/mL and 32.24 mg/mL
Protein in aqueous humor, statistical significance vs CTR ([1]; 1% formulation, p<0.001): statistical significance
Protein level in aqueous humor, Mean ([1]; 1% formulation, second paracentesis): 21.435 mg/mL
PGE2 in aqueous humor, statistical significance versus CTR ([2]; 0.1% formulation): statistically significant versus CTR
PGE2 level in aqueous humor, Mean ([2]; 0.1% formulation): 1.452 ng/mL
PGE2 in aqueous humor, statistical significance versus CTR ([2]; 0.5% formulation): statistically significant versus CTR
PGE2 level in aqueous humor, Mean ([2]; 0.5% formulation): 1.384 ng/mL
PGE2 level in aqueous humor, Mean ([2]; 1% formulation): 2.168 ng/mL
Clinical Score −5 min ([3]; 0.1% formulation): 0
Clinical Score +115 min ([3]; 0.1% formulation, listed as BOL): 2 and 3
Percentage of eyes with clinical score 2 [3, 4]: 75%
Percentage of eyes with clinical score 3 [3, 4]: 25%
Clinical Score −180 min ([3]; 0.1% formulation): 0
Percentage of eyes with clinical score 0 ([3]; 0.1% formulation, −5 min, N=8 eyes): 100%
Percentage of eyes with clinical score 0 ([3]; 0.1% formulation, −180 min (basal), N=8 eyes): 100%
Clinical Score −5 min ([3]; 0.5% formulation): 0
Clinical Score +115 min ([3]; 0.5% formulation, listed as BOL): 2 and 1
Percentage of eyes with clinical score 1 [3, 5]: 37.5%
Percentage of eyes with clinical score 2 [3, 5]: 62.5%
Clinical Score −180 min ([3]; 0.5% formulation): 0
Percentage of eyes with clinical score 0 ([3]; 0.5% formulation, −5 min, N=8 eyes): 100%
Percentage of eyes with clinical score 0 ([3]; 0.5% formulation, −180 min (basal), N=8 eyes): 100%
Clinical Score −5 min ([3]; 1% formulation): 0
Clinical Score +115 min ([3]; 1% formulation): 2
Percentage of eyes with clinical score 2 ([3]; 1% formulation, +115 min, N=8 eyes): 100%
Clinical Score −180 min ([3]; 1% formulation): 0
Percentage of eyes with clinical score 0 ([3]; 1% formulation, −5 min, N=8 eyes): 100%
Percentage of eyes with clinical score 0 ([3]; 1% formulation, −180 min (basal), N=8 eyes): 100%
Pupillary diameter T2: −5 min (pupillary diameter; 0.1% formulation): 6.5 mm and 7.0 mm and 7.5 mm
Pupillary diameter T3: +115 min (pupillary diameter; 0.1% formulation): 5.0 mm and 6.0 mm and 6.5 mm and 5.5 mm
Pupillary diameter T1: −180 min (pupillary diameter; 0.1% formulation): 6.5 mm and 7.0 mm and 7.5 mm
Mean (mm) Δ(T3 − T1) of pupillary diameter (pupillary diameter; 0.1% formulation): −1.1 mm
Pupillary diameter T2: −5 min (pupillary diameter; 0.5% formulation): 8.0 mm and 7.0 mm and 7.5 mm
Pupillary diameter T3: +115 min (pupillary diameter; 0.5% formulation): 6.5 mm and 6.0 mm and 7.0 mm
Pupillary diameter T1: −180 min (pupillary diameter; 0.5% formulation): 8.0 mm and 7.0 mm and 7.5 mm
Mean (mm) Δ(T3 − T1) of pupillary diameter (pupillary diameter; 0.5% formulation): −1.0 mm
Pupillary diameter T2: −5 min (pupillary diameter; 1% formulation): 6.0 mm and 6.5 mm and 7.0 mm
Pupillary diameter T3: +115 min (pupillary diameter; 1% formulation): 5.5 mm and 5.0 mm and 6.0 mm
Pupillary diameter T1: −180 min (pupillary diameter; 1% formulation): 6.0 mm and 6.5 mm
Mean (mm) Δ(T3 − T1) of pupillary diameter (pupillary diameter; 1% formulation): −0.9 mm
